Assay results reported in patent US7973080B2 (Ambria Dermatology AB, priority 2003, dated 2011).

What was measured:
[1] = system: methicillin-resistant Staphylococcus aureus; experiment: MIC by standard blood agar dilution technique; settings: MR fuc +, met +
Description: (§1) The following bacteria were investigated: methicillin-resistant Staphylococcus aureus (MSRA), fucidic acid-resistant S. aureus, non-resistant S. pyogenes, coagulation-negative staphylococci (for resistance, see Table 1 below) vancomycin-resistant enterococci (Enterococcus CCUG van A and van B), non-resistant Escherichia coli, Acinetobacter resistant against cefadroxil, nitrofurantin, mecillinam, Serratia maltophilia resistant against most types of antibiotics, Enterobacter (for resistance, see Table 1 below; additionally resistant against cefadroxil and nitrofurantin), non-resistant α-streptococci, non-resistant Streptococcus Group G, Pseudomonas aeruginosa (for resistance, see Table 2 below). Inocula of 10^3 and 10^5 bacteria were used.

Pseudomonas aeruginosa = experiment: MIC by standard blood agar dilution technique
Description: as §1

## OCCCCCO [pentane-1,5-diol]
[1]; MRSA CCUG 41787, inoculate size 10^3
  MIC (% by weight of pentane-1,5-diol): 12.5 % by weight
[1]; MRSA CCUG 41787, inoculate size 10^5
  MIC (% by weight of pentane-1,5-diol): 17.5 % by weight
[1]; MRSA CCUG 45007, inoculate size 10^3
  MIC (% by weight of pentane-1,5-diol): 10.0 % by weight
[1]; MRSA CCUG 45007, inoculate size 10^5
  MIC (% by weight of pentane-1,5-diol): 12.5 % by weight
[1]; MRSA CCUG 45008, inoculate size 10^3
  MIC (% by weight of pentane-1,5-diol): 12.5 % by weight
[1]; MRSA CCUG 45008, inoculate size 10^5
  MIC (% by weight of pentane-1,5-diol): 15.0 % by weight
[1]; MRSA CCUG 46463, inoculate size 10^3
  MIC (% by weight of pentane-1,5-diol): 10.0 % by weight
[1]; MRSA CCUG 46463, inoculate size 10^5
  MIC (% by weight of pentane-1,5-diol): 15.0 % by weight
[1]; MRSA CCUG 46618, inoculate size 10^3
  MIC (% by weight of pentane-1,5-diol): 12.5 % by weight
[1]; MRSA CCUG 46618, inoculate size 10^5
  MIC (% by weight of pentane-1,5-diol): 15.0 % by weight
[1]; MRSA CCUG 46740, inoculate size 10^3
  MIC (% by weight of pentane-1,5-diol): 12.5 % by weight
[1]; MRSA CCUG 46740, inoculate size 10^5
  MIC (% by weight of pentane-1,5-diol): 17.5 % by weight
[1]; MRSA CCUG 46870, inoculate size 10^3
  MIC (% by weight of pentane-1,5-diol): 10.0 % by weight
[1]; MRSA CCUG 46870, inoculate size 10^5
  MIC (% by weight of pentane-1,5-diol): 17.5 % by weight
[1]; MRSA CCUG 47019, inoculate size 10^3
  MIC (% by weight of pentane-1,5-diol): 10.0 % by weight
[1]; MRSA CCUG 47019, inoculate size 10^5
  MIC (% by weight of pentane-1,5-diol): 17.5 % by weight
[1]; MRSA Cypem, inoculate size 10^3
  MIC (% by weight of pentane-1,5-diol): 7.5 % by weight
[1]; MRSA Cypem, inoculate size 10^5
  MIC (% by weight of pentane-1,5-diol): 10.0 % by weight
[1]; MRSA PB/SS, inoculate size 10^3
  MIC (% by weight of pentane-1,5-diol): 12.5 % by weight
[1]; MRSA PB/SS, inoculate size 10^5
  MIC (% by weight of pentane-1,5-diol): 15.0 % by weight
Pseudomonas aeruginosa; P. aeruginosa 921 × 17701, inoculate size 10^3, MR cip +, tri +
  MIC (% by weight of pentane-1,5-diol): 5.0 % by weight
Pseudomonas aeruginosa; P. aeruginosa 921 × 17748, inoculate size 10^3, MR cip −, tri +
  MIC (% by weight of pentane-1,5-diol): 5.0 % by weight
Pseudomonas aeruginosa; P. aeruginosa 921 × 17756, inoculate size 10^3, MR cip +, tri +
  MIC (% by weight of pentane-1,5-diol): 5.0 % by weight
Pseudomonas aeruginosa; P. aeruginosa 921 × 57855, inoculate size 10^5, MR van +, tri −
  MIC (% by weight of pentane-1,5-diol): 10.0 % by weight
Pseudomonas aeruginosa; P. aeruginosa CCUG 17619, inoculate size 10^3
  MIC (% by weight of pentane-1,5-diol): 5.0 % by weight
Pseudomonas aeruginosa; P. aeruginosa CCUG 17619, inoculate size 10^5
  MIC (% by weight of pentane-1,5-diol): 5.0 % by weight
